Data reported in ChEMBL document CHEMBL4020788, “Synthesis, SAR and molecular docking studies of benzo[d]thiazole-hydrazones as potential antibacterial and antifungal agents” (2017).
Active and inactive are the calls of the source. The rule behind the calls is not given here.

What was measured:
Format in all cases: functional
Fusarium verticillioides [1] = experiment: Antifungal activity against Fusarium moniliforme at 100 ug/ml after 48 hrs by agar well diffusion method; details: for zone of inhibition at 100 µg/mL: read-out: DIZ
Escherichia coli [2] = experiment: Antibacterial activity against Escherichia coli at 50 ug/ml after 24 hrs by agar well diffusion method; details: for zone of inhibition at 50 µg/mL: read-out: DIZ
Bacillus subtilis [3] = experiment: Antibacterial activity against Bacillus subtilis at 75 ug/ml after 24 hrs by agar well diffusion method; details: for zone of inhibition at 75 µg/mL: read-out: DIZ
Escherichia coli [4] = experiment: Antibacterial activity against Escherichia coli at 75 ug/ml after 24 hrs by agar well diffusion method; details: for zone of inhibition at 75 µg/mL: read-out: DIZ
Staphylococcus aureus [5] = experiment: Antibacterial activity against Staphylococcus aureus at 50 ug/ml after 24 hrs by agar well diffusion method
Staphylococcus aureus [6] = experiment: Antibacterial activity against methicillin resistant Staphylococcus aureus MRSA090 at 75 ug/ml after 24 hrs by agar well diffusion method
Fusarium oxysporum [7] = experiment: Antifungal activity against Fusarium oxysporum at 25 ug/ml after 48 hrs by agar well diffusion method
Escherichia coli [8] = experiment: Antibacterial activity against Escherichia coli at 25 ug/ml after 24 hrs by agar well diffusion method; details: for zone of inhibition at 25 µg/mL: read-out: DIZ
Staphylococcus aureus [9] = experiment: Antibacterial activity against Staphylococcus aureus at 100 ug/ml after 24 hrs by agar well diffusion method
Bacillus subtilis [10] = experiment: Antibacterial activity against Bacillus subtilis at 100 ug/ml after 24 hrs by agar well diffusion method; details: for zone of inhibition at 100 µg/mL: read-out: DIZ
Aspergillus niger [11] = experiment: Antifungal activity against Aspergillus niger at 75 ug/ml after 48 hrs by agar well diffusion method
Klebsiella pneumoniae [12] = experiment: Antibacterial activity against Klebsiella pneumoniae at 100 ug/ml after 24 hrs by agar well diffusion method; details: read-out: DIZ
Aspergillus niger [13] = experiment: Antifungal activity against Aspergillus niger at 25 ug/ml after 48 hrs by agar well diffusion method
Fusarium verticillioides [14] = experiment: Antifungal activity against Fusarium moniliforme at 75 ug/ml after 48 hrs by agar well diffusion method; details: for zone of inhibition at 75 µg/mL: read-out: DIZ
Fusarium oxysporum [15] = experiment: Antifungal activity against Fusarium oxysporum at 50 ug/ml after 48 hrs by agar well diffusion method
Bacillus subtilis [16] = experiment: Antibacterial activity against Bacillus subtilis at 25 ug/ml after 24 hrs by agar well diffusion method; details: for zone of inhibition at 25 µg/mL: read-out: DIZ
Klebsiella pneumoniae [17] = experiment: Antibacterial activity against Klebsiella pneumoniae at 75 ug/ml after 24 hrs by agar well diffusion method; details: read-out: DIZ
Fusarium oxysporum [18] = experiment: Antifungal activity against Fusarium oxysporum at 75 ug/ml after 48 hrs by agar well diffusion method; details: for zone of inhibition at 75 µg/mL: read-out: DIZ
Staphylococcus aureus [19] = experiment: Antibacterial activity against Staphylococcus aureus at 25 ug/ml after 24 hrs by agar well diffusion method
Klebsiella pneumoniae [20] = experiment: Antibacterial activity against Klebsiella pneumoniae at 25 ug/ml after 24 hrs by agar well diffusion method; details: for zone of inhibition at 25 µg/mL: read-out: DIZ
Fusarium verticillioides [21] = experiment: Antifungal activity against Fusarium moniliforme at 25 ug/ml after 48 hrs by agar well diffusion method
Aspergillus niger [22] = experiment: Antifungal activity against Aspergillus niger at 100 ug/ml after 48 hrs by agar well diffusion method
Escherichia coli [23] = experiment: Antibacterial activity against Escherichia coli at 100 ug/ml after 24 hrs by agar well diffusion method; details: for zone of inhibition at 100 µg/mL: read-out: DIZ
Aspergillus niger [24] = experiment: Antifungal activity against Aspergillus niger at 50 ug/ml after 48 hrs by agar well diffusion method
Bacillus subtilis [25] = experiment: Antibacterial activity against Bacillus subtilis at 50 ug/ml after 24 hrs by agar well diffusion method; details: for zone of inhibition at 50 µg/mL: read-out: DIZ
Staphylococcus aureus [26] = experiment: Antibacterial activity against methicillin resistant Staphylococcus aureus MRSA090 at 50 ug/ml after 24 hrs by agar well diffusion method
Klebsiella pneumoniae [27] = experiment: Antibacterial activity against Klebsiella pneumoniae at 50 ug/ml after 24 hrs by agar well diffusion method; details: for zone of inhibition at 50 µg/mL: read-out: DIZ
Fusarium oxysporum [28] = experiment: Antifungal activity against Fusarium oxysporum at 100 ug/ml after 48 hrs by agar well diffusion method; details: read-out: DIZ
Staphylococcus aureus [29] = experiment: Antibacterial activity against Staphylococcus aureus at 75 ug/ml after 24 hrs by agar well diffusion method
Fusarium verticillioides [30] = experiment: Antifungal activity against Fusarium moniliforme at 50 ug/ml after 48 hrs by agar well diffusion method
Staphylococcus aureus [31] = experiment: Antibacterial activity against methicillin resistant Staphylococcus aureus MRSA090 at 25 ug/ml after 24 hrs by agar well diffusion method
Staphylococcus aureus [32] = experiment: Antibacterial activity against methicillin resistant Staphylococcus aureus MRSA090 at 100 ug/ml after 24 hrs by agar well diffusion method

Cc1cccc2nc(N/N=C/c3ccc(Oc4ccccc4)cc3)sc12
zone of inhibition at 100 µg/mL (Fusarium verticillioides [1]): 14 mm | diameter of the inhibition zone (DIZ) (Escherichia coli [2]): inactive | diameter of the inhibition zone (DIZ) (Bacillus subtilis [3]): inactive | diameter of the inhibition zone (DIZ) (Escherichia coli [4]): inactive | diameter of the inhibition zone (DIZ) (Staphylococcus aureus [5]): inactive | diameter of the inhibition zone (DIZ) (Staphylococcus aureus [6]): inactive | diameter of the inhibition zone (DIZ) (Fusarium oxysporum [7]): inactive | diameter of the inhibition zone (DIZ) (Escherichia coli [8]): inactive | diameter of the inhibition zone (DIZ) (Staphylococcus aureus [9]): inactive | diameter of the inhibition zone (DIZ) (Bacillus subtilis [10]): inactive | diameter of the inhibition zone (DIZ) (Aspergillus niger [11]): inactive | zone of inhibition at 100 µg/mL (Klebsiella pneumoniae [12]): 15 mm | diameter of the inhibition zone (DIZ) (Aspergillus niger [13]): inactive | zone of inhibition at 75 µg/mL (Fusarium verticillioides [14]): 8 mm | diameter of the inhibition zone (DIZ) (Fusarium oxysporum [15]): inactive | diameter of the inhibition zone (DIZ) (Bacillus subtilis [16]): inactive | zone of inhibition at 75 µg/mL (Klebsiella pneumoniae [17]): 11 mm | zone of inhibition at 75 µg/mL (Fusarium oxysporum [18]): 10 mm | diameter of the inhibition zone (DIZ) (Staphylococcus aureus [19]): inactive | zone of inhibition at 25 µg/mL (Klebsiella pneumoniae [20]): 4 mm | diameter of the inhibition zone (DIZ) (Fusarium verticillioides [21]): inactive | diameter of the inhibition zone (DIZ) (Aspergillus niger [22]): inactive | diameter of the inhibition zone (DIZ) (Escherichia coli [23]): inactive | diameter of the inhibition zone (DIZ) (Aspergillus niger [24]): inactive | diameter of the inhibition zone (DIZ) (Bacillus subtilis [25]): inactive | diameter of the inhibition zone (DIZ) (Staphylococcus aureus [26]): inactive | zone of inhibition at 50 µg/mL (Klebsiella pneumoniae [27]): 18 mm | zone of inhibition at 100 µg/mL (Fusarium oxysporum [28]): 15 mm | diameter of the inhibition zone (DIZ) (Staphylococcus aureus [29]): inactive | diameter of the inhibition zone (DIZ) (Fusarium verticillioides [30]): inactive | diameter of the inhibition zone (DIZ) (Staphylococcus aureus [31]): inactive | diameter of the inhibition zone (DIZ) (Staphylococcus aureus [32]): inactive

Cc1cccc2nc(N/N=C/c3ccccc3)sc12
diameter of the inhibition zone (DIZ) (Fusarium verticillioides [1]): inactive | zone of inhibition at 50 µg/mL (Escherichia coli [2]): 11 mm | zone of inhibition at 75 µg/mL (Bacillus subtilis [3]): 11 mm | zone of inhibition at 75 µg/mL (Escherichia coli [4]): 13 mm | diameter of the inhibition zone (DIZ) (Staphylococcus aureus [5]): inactive | diameter of the inhibition zone (DIZ) (Staphylococcus aureus [6]): inactive | zone of inhibition at 25 µg/mL (Fusarium oxysporum [7]; read-out: DIZ): 4 mm | zone of inhibition at 25 µg/mL (Escherichia coli [8]): 9 mm | diameter of the inhibition zone (DIZ) (Staphylococcus aureus [9]): inactive | zone of inhibition at 100 µg/mL (Bacillus subtilis [10]): 13 mm | diameter of the inhibition zone (DIZ) (Aspergillus niger [11]): inactive | zone of inhibition at 100 µg/mL (Klebsiella pneumoniae [12]): 10 mm | diameter of the inhibition zone (DIZ) (Aspergillus niger [13]): inactive | diameter of the inhibition zone (DIZ) (Fusarium verticillioides [14]): inactive | zone of inhibition at 50 µg/mL (Fusarium oxysporum [15]; read-out: DIZ): 8 mm | zone of inhibition at 25 µg/mL (Bacillus subtilis [16]): 5 mm | zone of inhibition at 75 µg/mL (Klebsiella pneumoniae [17]): 7 mm | zone of inhibition at 75 µg/mL (Fusarium oxysporum [18]): 13 mm | diameter of the inhibition zone (DIZ) (Staphylococcus aureus [19]): inactive | diameter of the inhibition zone (DIZ) (Klebsiella pneumoniae [20]): inactive | diameter of the inhibition zone (DIZ) (Fusarium verticillioides [21]): inactive | diameter of the inhibition zone (DIZ) (Aspergillus niger [22]): inactive | zone of inhibition at 100 µg/mL (Escherichia coli [23]): 15 mm | diameter of the inhibition zone (DIZ) (Aspergillus niger [24]): inactive | zone of inhibition at 50 µg/mL (Bacillus subtilis [25]): 7 mm | diameter of the inhibition zone (DIZ) (Staphylococcus aureus [26]): inactive | diameter of the inhibition zone (DIZ) (Klebsiella pneumoniae [27]): inactive | zone of inhibition at 100 µg/mL (Fusarium oxysporum [28]): 16 mm | diameter of the inhibition zone (DIZ) (Staphylococcus aureus [29]): inactive | diameter of the inhibition zone (DIZ) (Fusarium verticillioides [30]): inactive | diameter of the inhibition zone (DIZ) (Staphylococcus aureus [31]): inactive | diameter of the inhibition zone (DIZ) (Staphylococcus aureus [32]): inactive

COc1ccc(/C=N/Nc2nc3cccc(C)c3s2)cc1Br
zone of inhibition at 100 µg/mL (Fusarium verticillioides [1]): 17 mm | zone of inhibition at 50 µg/mL (Escherichia coli [2]): 9 mm | zone of inhibition at 75 µg/mL (Bacillus subtilis [3]): 11 mm | zone of inhibition at 75 µg/mL (Escherichia coli [4]): 13 mm | diameter of the inhibition zone (DIZ) (Staphylococcus aureus [5]): inactive | zone of inhibition at 75 µg/mL (Staphylococcus aureus [6]; MRSA090, 24 h, read-out: DIZ): 16 mm | diameter of the inhibition zone (DIZ) (Fusarium oxysporum [7]): inactive | zone of inhibition at 25 µg/mL (Escherichia coli [8]): 7 mm | diameter of the inhibition zone (DIZ) (Staphylococcus aureus [9]): inactive | zone of inhibition at 100 µg/mL (Bacillus subtilis [10]): 16 mm | zone of inhibition at 75 µg/mL (Aspergillus niger [11]; read-out: DIZ): 14 mm | zone of inhibition at 100 µg/mL (Klebsiella pneumoniae [12]): 16 mm | zone of inhibition at 25 µg/mL (Aspergillus niger [13]; read-out: DIZ): 8 mm | zone of inhibition at 75 µg/mL (Fusarium verticillioides [14]): 13 mm | diameter of the inhibition zone (DIZ) (Fusarium oxysporum [15]): inactive | zone of inhibition at 25 µg/mL (Bacillus subtilis [16]): 4 mm | zone of inhibition at 75 µg/mL (Klebsiella pneumoniae [17]): 14 mm | diameter of the inhibition zone (DIZ) (Fusarium oxysporum [18]): inactive | diameter of the inhibition zone (DIZ) (Staphylococcus aureus [19]): inactive | zone of inhibition at 25 µg/mL (Klebsiella pneumoniae [20]): 7 mm | zone of inhibition at 25 µg/mL (Fusarium verticillioides [21]; read-out: DIZ): 7 mm | zone of inhibition at 100 µg/mL (Aspergillus niger [22]; read-out: DIZ): 18 mm | zone of inhibition at 100 µg/mL (Escherichia coli [23]): 16 mm | zone of inhibition at 50 µg/mL (Aspergillus niger [24]; read-out: DIZ): 11 mm | zone of inhibition at 50 µg/mL (Bacillus subtilis [25]): 8 mm | zone of inhibition at 50 µg/mL (Staphylococcus aureus [26]; MRSA090, 24 h, read-out: DIZ): 12 mm | zone of inhibition at 50 µg/mL (Klebsiella pneumoniae [27]): 11 mm | zone of inhibition at 100 µg/mL (Fusarium oxysporum [28]): 10 mm | diameter of the inhibition zone (DIZ) (Staphylococcus aureus [29]): inactive | zone of inhibition at 50 µg/mL (Fusarium verticillioides [30]; read-out: DIZ): 11 mm | zone of inhibition at 25 µg/mL (Staphylococcus aureus [31]; MRSA090, 24 h, read-out: DIZ): 8 mm | zone of inhibition at 100 µg/mL (Staphylococcus aureus [32]; MRSA090, 24 h, read-out: DIZ): 18 mm
